# Data as given in patent US8148386B2, “Agent for the prevention and treatment of prostatic hyperplasia comprising pyrazolopyrimidinone compound” (priority 2006, dated 2012).
# Read-outs that look alike come from different tables or passages of the source.
# Key:
# [1] = cited from earlier work
# [2] = Interrupt rate of administration due to side effects of PDE-5 inhibitors after clinical trials on impotence
# [3] = tested on: BPH rat models; assay: Repeated administration: intraurethral pressure in BPH rat models; type: in vivo, Wistar rats; details: oral 1, 5 and 20 mg/kg for 8 weeks; 5, 10 and 20 Hz electrostimulation of hypogastric nerves; FIGS. 1 to 4
# Description: In the present experiment, thirty-six male white Wistar rats of 300 to 350 g were randomly divided into six control groups of six rats. The first group (1) was left untreated as a normal control group and the other groups were those whose testicles were […]. From a couple of days after the operations, each rat in the third to sixth groups was given a daily hypodermic injection of 1 mg of testosterone and 0.01 mg of 17 beta-estradiol for 8 weeks. The second group (2) was those whose testicles were […] only; the third group (3) was treated with a solvent; the fourth group (4) was treated with 1 mg/kg of the pyrazolopyrimidinone compound of formula 1; the fifth group (5) was treated with 5 mg/kg of the pyrazolopyrimidinone compound of formula 1; and the sixth group (6) was treated with 20 mg/kg of the pyrazolopyrimidinone compound of formula 1, the fourth to sixth groups being orally administrated for 8 weeks. After 8 weeks, all rats were anesthetized by an intraperitoneal injection with 50 mg/kg of pentobarbital, and intubated with polyethylene needles. […] In the measurement, 5, 10 and 20 Hz of electrostimulations were applied to hypogastric nerves using a stainless steel anode electrode, and the measured results were shown in FIGS. 1 to 4.
# [4] = tested on: BPH rat models; assay: Single administration: intraurethral pressure in BPH rat models; type: in vivo, Wistar rats
# Description: In the present experiment, thirty male white […] rats of 300 to 350 g were randomly divided into five control groups of six rats. The first group (1') was left untreated as a normal group and the other groups were those whose testicles were resected. From a couple of days after the operations, each rat in the third to fifth groups was given a daily hypodermic injection of 1 mg of testosterone and 0.01 mg of 17 beta-estradiol for 8 weeks. After 8 weeks, all rats were anesthetized by an intraperitoneal injection with 50 mg/kg of pentobarbital, and intubated with polyethylene needles. The second group (2') was those whose testicles were resected only; the third group (3') was treated with a solvent; the fourth group (4') was treated with 0.3 mg/kg of the pyrazolopyrimidinone compound of formula 1; and the fifth group (5') was treated with 1 mg/kg of the pyrazolopyrimidinone compound of formula 1, the fourth and fifth groups being administrated via intravenous injections. […] In the measurement, 5, 10 and 20 Hz of electrostimulations were applied to hypogastric nerves using a stainless steel anode electrode, and the measured results were shown in FIGS. 5 to 8.
# [5] = Pharmacokinetic experiment in the human body (BPH patients); type: in vivo
# Description: The test was carried out in a double-blind manner and the participants were administrated with the test drugs with 240 ml of water at 8:00 to 9:00 am of the test day. After administration, all participants were fasted for four hours. After the fast, they were served a lunch of standard diet and provided a dinner of standard diet nine hours after the lunch. Blood collections were carried out before administrating the test drugs and 0.5, 1, 1.5, 2, 2.5, 3, 4, 5, 6, 8, 12 and 24 hours after the administration on the test day. From the bloods collected, blood plasmas were separated and analyzed using high performance liquid chromatography (HPLC). […] of 0.1 M sodium carbonate and 1.0 ml of ethylether were added to each 0.5 ml of blood plasma and mixed well for one minute. Then, the resultant solutions were centrifuged at […] for three minutes. Subsequently, the supernatants were collected, from which organic solvents were volatilized using a Speed-Vac, to which […] of mobile phases were added, stirred and injected into the high performance liquid chromatography (HPLC).
# [6] = Phase 1 clinical trial: safety, tolerability and pharmacokinetics in healthy adults; type: in vivo, human
# [7] = target: PDE-5 (Homo sapiens, UniProt O76074); assay: Inhibition of PDE-5 activity; type: biochemical
# [8] = target: PDE-11 (Homo sapiens, UniProt Q9HCR9)
# Chain of PDE-11 (Q9HCR9 whole entry): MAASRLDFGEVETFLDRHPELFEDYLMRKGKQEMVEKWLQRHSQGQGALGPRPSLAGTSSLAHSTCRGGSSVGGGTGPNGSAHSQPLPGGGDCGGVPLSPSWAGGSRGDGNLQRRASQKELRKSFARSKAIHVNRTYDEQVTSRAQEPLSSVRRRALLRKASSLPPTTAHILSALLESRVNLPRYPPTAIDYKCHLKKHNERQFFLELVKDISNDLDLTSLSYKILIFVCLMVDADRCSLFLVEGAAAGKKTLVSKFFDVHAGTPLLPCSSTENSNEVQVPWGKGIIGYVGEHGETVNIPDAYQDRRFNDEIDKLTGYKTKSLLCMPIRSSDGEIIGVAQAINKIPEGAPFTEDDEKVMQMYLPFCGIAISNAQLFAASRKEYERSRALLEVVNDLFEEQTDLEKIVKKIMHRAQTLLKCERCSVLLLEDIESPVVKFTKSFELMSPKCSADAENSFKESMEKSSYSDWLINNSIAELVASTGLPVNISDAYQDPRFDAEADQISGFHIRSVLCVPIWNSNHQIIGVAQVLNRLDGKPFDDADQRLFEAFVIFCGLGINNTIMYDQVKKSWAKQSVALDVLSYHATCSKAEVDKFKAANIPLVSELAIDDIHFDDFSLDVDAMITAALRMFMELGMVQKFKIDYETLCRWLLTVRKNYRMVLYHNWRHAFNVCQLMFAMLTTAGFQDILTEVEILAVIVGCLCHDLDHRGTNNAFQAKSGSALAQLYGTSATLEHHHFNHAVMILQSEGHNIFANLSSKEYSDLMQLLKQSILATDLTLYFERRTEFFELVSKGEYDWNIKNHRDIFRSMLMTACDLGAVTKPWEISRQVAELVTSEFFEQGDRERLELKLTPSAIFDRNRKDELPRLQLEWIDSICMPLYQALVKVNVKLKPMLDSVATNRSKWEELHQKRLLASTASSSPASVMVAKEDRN
# [9] = Xenobiotica 2004 34:973-982; cited from earlier work
# [10] = Tissue distribution in urogenital organs; details: male, Sprague-Dawley, rat, 30 mg/kg
# Description: Male white Sprague-Dawley (SD) rats were randomly assigned by four to five rats at different time points. […] At different time points of 30 minutes, 2 hours and 6 hours after administration, bloods were collected through abdominal aortas and urogenital organs were extracted. Phosphate buffer of pH 7.4 was added to the extracted organs to be homogenized. […] Analyses were performed using a Hichrom HIRPB column (150×4.6 mm, particle size: 5 μm) at fixed wavelength of 292 nm with a mobile phase mixed with 20 nM of KH2PO4 and acetonitrile in a volume ratio of 70:30. The mobile phase flow rate was 1 ml/min. and the amount of sample introduced was 100 ml.
compound,measurement,setting,value
CN1CC(=O)N2[C@H](c3ccc4c(c3)OCO4)c3[nH]c4ccccc4c3C[C@@H]2C1=O [Cialis],IPSS change,[1]; 5 mg once a day for 6 weeks,2.8 points
same,IPSS change,"[1]; dose increased to 20 mg, additional 6 weeks",3.8 points
same,interrupt rate of administration due to the side effects,[1]; phase 2 clinical trial,3.6%
same,Interrupt rate (%) of administration due to side effects,[2]; 5 mg,0.7%
same,Interrupt rate (%) of administration due to side effects,[2]; 10 mg,1.6%
same,Interrupt rate (%) of administration due to side effects,[2]; 20 mg,3.1%
"CCCOc1ccc(S(=O)(=O)NCCC2CCCN2C)cc1-c1nc2c(CCC)nn(C)c2c(=O)[nH]1 (stereo not shown) [Compound of formula 1, 5-[2-propyloxy-5-(1-methyl-2-pyrrolidinylethylamidosulfonyl)phenyl]-1-methyl-propyl-1,6-dihydro-7H-pyrazolo(4,3-d)pyrimidin-7-one]",intraurethral pressures (IUP),[3],decreased dose-dependently and significantly
same,"intraurethral pressure, significance of decrease","[4]; 0.3 mg/kg intravenous, 5 and 10 Hz",did not show significant decreases
same,"intraurethral pressure, significance of change","[4]; 0.3 mg/kg intravenous, 20 Hz",significant increase
same,prevention of increases in the intraurethral pressure in comparison with sildenafil,"[4]; single administration, sildenafil of same volume",excellent effects
same,increases in the intraurethral pressure,"[4]; single intravenous injection 0.3 and 1 mg/kg, FIGS. 5 to 8",prevented dose-dependently
same,half-life,"[5]; human, in vivo, 100 mg",12.1 ± 3.2 h
same,half-life,"[5]; male, human, in vivo",9 to 15 h
same,half-life,"[6]; human, in vivo, oral, regardless of the doses administrated, healthy adults",9 to 15 h
same,Tmax,"[6]; human, in vivo, after oral administration, healthy adults",1 to 2 h
same,abnormal responses to the test substance,[6]; phase 1 clinical trial,no serious abnormal responses
same,accumulation of drug,[6]; repeated administration once a day for 7 days,not observed
same,inhibitive activity for PDE-5,[7],strong inhibitive activity
same,selectivity for PDE-5,[7],excellent selectivity
same,inhibition of the activity of PDE-11,[8],does not have an inhibiting power
same,residual rate after liver metabolism,[9],93.0%
same,Interrupt rate (%) of administration due to side effects,[2]; 100 mg,0.0%
same,Interrupt rate (%) of administration due to side effects,[2]; 200 mg,1.2%
CCCc1nc(C)c2c(=O)[nH]c(-c3cc(S(=O)(=O)N4CCN(CC)CC4)ccc3OCC)nn12 [Levitra],Interrupt rate (%) of administration due to side effects,[2]; 5 mg,2.7%
same,Interrupt rate (%) of administration due to side effects,[2]; 10 mg,2.9%
same,Interrupt rate (%) of administration due to side effects,[2]; 20 mg,6.6%
CCCc1nn(C)c2c(=O)[nH]c(-c3cc(S(=O)(=O)N4CCN(C)CC4)ccc3OCC)nc12 [Sildenafil],half-life,"[5]; 50 mg, BPH patients, plasma",4.1 ± 1.1 time
same,half-life,"[5]; male, human, plasma, oral, summary of Table 3, read-out: half-life",3 to 5 h
same,concentration at 30 min,[10],319 ng/mL
same,concentration at 120 min,[10],633 ng/mL
same,concentration at 360 min,[10],259 ng/mL
same,Interrupt rate (%) of administration due to side effects,[2]; 25 mg,0.0%
same,Interrupt rate (%) of administration due to side effects,[2]; 50 mg,0.7%
same,Interrupt rate (%) of administration due to side effects,[2]; 100 mg,3.9%
